From patent US20110009381A1, “SOLUBILIZED THIAZOLOPYRIDINES” (Sirtis Pharmaceuticals, Inc., priority 2007, published 2011) come the findings set out here.

For this test, the target named is T1, SIRT1 (Homo sapiens, UniProt Q96EB6).
T1 sequence (Q96EB6 1-747): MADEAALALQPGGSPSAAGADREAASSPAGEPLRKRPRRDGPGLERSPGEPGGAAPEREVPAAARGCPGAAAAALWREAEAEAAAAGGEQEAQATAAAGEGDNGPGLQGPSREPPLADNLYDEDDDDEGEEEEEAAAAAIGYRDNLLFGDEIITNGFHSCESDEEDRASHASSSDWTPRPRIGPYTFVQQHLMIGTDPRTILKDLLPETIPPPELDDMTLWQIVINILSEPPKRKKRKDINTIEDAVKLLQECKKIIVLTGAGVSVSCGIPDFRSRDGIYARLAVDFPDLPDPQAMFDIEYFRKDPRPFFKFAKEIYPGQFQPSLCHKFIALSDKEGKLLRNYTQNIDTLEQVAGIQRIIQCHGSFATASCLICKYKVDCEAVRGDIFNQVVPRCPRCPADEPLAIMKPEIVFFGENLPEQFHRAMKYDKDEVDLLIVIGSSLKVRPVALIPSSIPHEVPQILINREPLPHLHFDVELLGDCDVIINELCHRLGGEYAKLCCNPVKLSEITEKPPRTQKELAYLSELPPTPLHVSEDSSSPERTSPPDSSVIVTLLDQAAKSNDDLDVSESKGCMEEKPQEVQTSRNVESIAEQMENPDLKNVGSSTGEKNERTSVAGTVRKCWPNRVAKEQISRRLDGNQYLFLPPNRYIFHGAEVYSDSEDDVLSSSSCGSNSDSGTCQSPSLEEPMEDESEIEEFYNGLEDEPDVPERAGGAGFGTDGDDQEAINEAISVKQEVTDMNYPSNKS
The experiment in a line: Mass spectrometry based assay to identify modulators of SIRT1 activity (deacetylation of p53-based acetylated peptide substrate). Format: biochemical. The conditions noted are these: 10 nM SIRT1, 0.5 μM peptide substrate, 120 μM βNAD+, 25 minutes at 25° C.; for EC1.5: SIRT1 activation. The source says:
A mass spectrometry based assay was used to identify modulators of SIRT1 activity. The mass spectrometry based assay utilizes a peptide having 20 amino acid residues as follows: Ac-EE-K(biotin)-GQSTSSHSK(Ac)NleSTEG-K(5TMR)-EE-NH2 (SEQ ID NO: 1) wherein K(Ac) is an acetylated lysine residue and Nle is a norleucine. The peptide is labeled with the fluorophore 5TMR (excitation 540 nm/emission 580 nm) at the C-terminus. The sequence of the peptide substrate is based on p53 with several modifications. In addition, the methionine residue naturally present in the sequence was replaced with the norleucine because the methionine may be susceptible to oxidation during synthesis and purification.
The mass spectrometry assay is conducted as follows: 0.5 μM peptide substrate and 120 μM βNAD^+ is incubated with 10 nM SIRT1 for 25 minutes at 25° C. in a reaction buffer (50 mM Tris-acetate pH 8, 137 mM NaCl, 2.7 mM KCl, 1 mM MgCl2, 5 mM DTT, 0.05% BSA). Test compounds may be added to the reaction as described above. The SirT1 gene is cloned into a T7-promoter containing vector and transformed into BL21(DE3). After the 25 minute incubation with SIRT1, 10 μL of 10% formic acid is added to stop the reaction. Reactions are sealed and frozen for later mass spec analysis. Determination of the mass of the substrate peptide allows for precise determination of the degree of acetylation (i.e. starting material) as compared to deacetylated peptide (product).
A control for inhibition of sirtuin activity is conducted by adding 1 μL of 500 mM nicotinamide as a negative control at the start of the reaction (e.g., permits determination of maximum sirtuin inhibition). A control for activation of sirtuin activity is conducted using 10 nM of sirtuin protein, with 1 μL of DMSO in place of compound, to determine the amount of deacetylation of the substrate at a given timepoint within the linear range of the assay. This timepoint is the same as that used for test compounds and, within the linear range, the endpoint represents a change in velocity.
For the above assay, SIRT1 protein was expressed and purified as follows. The SirT1 gene was cloned into a T7-promoter containing vector and transformed into BL21(DE3). The protein was expressed by induction with 1 mM IPTG as an N-terminal His-tag fusion protein at 18° C. overnight and harvested at 30,000×g. Cells were lysed with lysozyme in lysis buffer (50 mM Tris-HCl, 2 mM Tris[2-carboxyethyl]phosphine (TCEP), 10 μM ZnCl2, 200 mM NaCl) and further treated with sonication for 10 min for complete lysis. The protein was purified over a Ni-NTA column (Amersham) and fractions containing pure protein were pooled, concentrated and run over a sizing column (Sephadex S200 26/60 global). The peak containing soluble protein was collected and run on an Ion-exchange column (MonoQ). Gradient elution (200 mM-500 mM NaCl) yielded pure protein. This protein was concentrated and dialyzed against dialysis buffer (20 mM Tris-HCl, 2 mM TCEP) overnight. The protein was aliquoted and frozen at −80° C. until further use.
Sirtuin modulating compounds that activated SIRT1 were identified using the assay described above and are shown below in Table 1. The EC1-5 values for the activating compounds are represented by A′ (EC1.5<250 nM), A (EC1.5≧250 nM and ≦1 uM), B (EC1.5>1 and ≦10 uM), or C (EC1.5>10 uM). The percent maximum fold activation is represented by A (Fold activation≧300%), B (Fold Activation≧150% and <300%), or C (Fold Activation<150%).

Regarding `O=C(Nc1ccccc1-c1nc2cccnc2s1)c1cc(NC2CCCNC2)nc(-c2ccccc2)n1` (stereo not shown) [Compound 72], the “FOLD ACT. (percent maximum fold activation)” value is recorded as “A (Fold activation≧300%)” and the EC1.5 entry is “A′ (EC1.5<250 nM)”.
Regarding `O=C(Nc1ccccc1-c1nc2cccnc2s1)c1cc(NC[C@@H](O)CO)nc(-c2ccccc2)n1` [Compound 106], the “FOLD ACT. (percent maximum fold activation)” value was “A (Fold activation≧300%)” and the EC1.5 result is recorded as “A′ (EC1.5<250 nM)”.
Turning to `O=C(Nc1ccccc1-c1nc2ccncc2s1)c1cc(NCCN2CCOCC2)nc(-c2ccccc2)n1` [Compound 30], the “FOLD ACT. (percent maximum fold activation)” value is reported as “A (Fold activation≧300%)”; the EC1.5 result was “A (EC1.5≧250 nM and ≦1 uM)”.
`CS(=O)(=O)N1CCC(Nc2cc(C(=O)Nc3ccccc3-c3nc4cccnc4s3)nc(-c3ccccc3)n2)CC1` [Compound 135]: the “FOLD ACT. (percent maximum fold activation)” value is “A (Fold activation≧300%)” and the EC1.5 entry is “A′ (EC1.5<250 nM)”.
In the same order, the values of `CN(C)CCN(C)c1cc(C(=O)Nc2ccccc2-c2nc3cccnc3s2)nc(-c2ccccc2)n1` [Compound 145] are “A (Fold activation≧300%)” and “A′ (EC1.5<250 nM)”.
In the case of `O=C(Nc1ccccc1-c1nc2cccnc2s1)c1cc(OC[C@@H](O)CO)cc(-c2ccccc2)n1` [Compound 127], the “FOLD ACT. (percent maximum fold activation)” value is “A (Fold activation≧300%)”; the EC1.5 entry is “A (EC1.5≧250 nM and ≦1 uM)”.
Turning to `CCOC(=O)CCNc1cc(C(=O)Nc2ccccc2-c2nc3cccnc3s2)nc(-c2ccccc2)n1` [Compound 43], the “FOLD ACT. (percent maximum fold activation)” value is “B (Fold Activation≧150% and <300%)”; the EC1.5 entry is “A (EC1.5≧250 nM and ≦1 uM)”.
For `CCCN1CCC(Nc2cc(C(=O)Nc3ccccc3-c3nc4cccnc4s3)nc(-c3ccccc3)n2)CC1` [Compound 101], the “FOLD ACT. (percent maximum fold activation)” value is reported as “A (Fold activation≧300%)” and the EC1.5 entry was “A′ (EC1.5<250 nM)”.
For the compound `O=C(Nc1ccccc1-c1nc2cccnc2s1)c1cc(NC2CCN(C(=O)c3ccccc3)CC2)nc(-c2ccccc2)n1` [Compound 136], the “FOLD ACT. (percent maximum fold activation)” value is “B (Fold Activation≧150% and <300%)”; the EC1.5 result was “A (EC1.5≧250 nM and ≦1 uM)”.
Take `COCCN(C)c1cc(C(=O)Nc2ccccc2-c2nc3cccnc3s2)nc(-c2ccccc2)n1` [Compound 47]: the “FOLD ACT. (percent maximum fold activation)” value is “A (Fold activation≧300%)” and the EC1.5 entry was “A′ (EC1.5<250 nM)”.
In the same order, the values of `O=C(Nc1ccccc1-c1nc2cccnc2s1)c1cc(Cl)nc(-c2ccccc2)n1` [Compound 8] are “C (Fold Activation<150%)” and “C (EC1.5>10 uM)”.
In the same order, the values of `O=C(Nc1ccccc1-c1nc2cccnc2s1)c1cc(NC2CCOC2=O)nc(-c2ccccc2)n1` (stereo not shown) [Compound 91] are “A (Fold activation≧300%)” and “A′ (EC1.5<250 nM)”.
In the same order, the values of `NCCCCCNc1cc(C(=O)Nc2ccccc2-c2nc3cccnc3s2)nc(-c2ccccc2)n1` [Compound 86] are “A (Fold activation≧300%)” and “A′ (EC1.5<250 nM)”.
For `NCCCOc1cc(C(=O)Nc2ccccc2-c2nc3cccnc3s2)nc(-c2ccccc2)n1` [Compound 76], the “FOLD ACT. (percent maximum fold activation)” value is “A (Fold activation≧300%)” and the EC1.5 entry is recorded as “A′ (EC1.5<250 nM)”.
Consider `CC(C)N1CCN(c2cc(C(=O)Nc3ccccc3-c3nc4cccnc4s3)nc(-c3ccccc3)n2)CC1.Cl` [Compound 65], for which the “FOLD ACT. (percent maximum fold activation)” value is “B (Fold Activation≧150% and <300%)”; the EC1.5 entry is recorded as “A′ (EC1.5<250 nM)”.
As for `CNc1cc(C(=O)Nc2ccccc2-c2nc3cccnc3s2)nc(-c2ccccc2)n1` [Compound 64], the “FOLD ACT. (percent maximum fold activation)” value is “C (Fold Activation<150%)” and the EC1.5 entry is on record as “C (EC1.5>10 uM)”.
As for `O=C(Nc1ccccc1-c1nc2cccnc2s1)c1cc(N2CCOCC2)nc(-c2ccccc2)n1` [Compound 2], the “FOLD ACT. (percent maximum fold activation)” value is “B (Fold Activation≧150% and <300%)”; the EC1.5 result is given as “A′ (EC1.5<250 nM)”.
